From patent publication US20250255867A1 (Kadmon Corporation, LLC, priority 2022, published 2025)

Conditions: Cohort 1 200 mg QD

For `CC(C)NC(=O)COc1cccc(-c2nc(Nc3ccc4[nH]ncc4c3)c3ccccc3n2)c1` [Belumosudil, 2-{3-[4-(1H-indazol-5-ylamino)-2-quinazolinyl]phenoxy}-N-(propan-2-yl) acetamide], the “Diarrhoea: Affected/At Risk” value was 6/17, the “Diarrhoea: Affected/At Risk (%)” value was “(35.29%)” and the “Dizziness: # Events” value was 0. The “Dizziness: Affected/At Risk” value was 0/17, the “Dizziness: Affected/At Risk (%)” value was “(0%)” and the “Drug eruption: # Events” value was 0. The “Drug eruption: Affected/At Risk” value was 0/17, the “Drug eruption: Affected/At Risk (%)” value was “(0%)” and the “Dry eye: # Events” value was 3. The “Dry eye: Affected/At Risk” value was 2/17, the “Dry eye: Affected/At Risk (%)” value was “(11.76%)” and the “Dry skin: # Events” value was 1. For the same compound, the “Dry skin: Affected/At Risk” value was 1/17, the “Dry skin: Affected/At Risk (%)” value was “(5.88%)” and the “Dyspepsia: # Events” value was 0. The “Dyspepsia: Affected/At Risk” value was 0/17, the “Dyspepsia: Affected/At Risk (%)” value was “(0%)” and the “Dysphagia: # Events” value was 1. For the same compound, the “Dysphagia: Affected/At Risk” value was 1/17, the “Dysphagia: Affected/At Risk (%)” value was “(5.88%)” and the “Dyspnoea exertional: # Events” value was 1. The “Dyspnoea exertional: Affected/At Risk” value was 1/17, the “Dyspnoea exertional: Affected/At Risk (%)” value was “(5.88%)” and the “Dyspnoea: # Events” value was 2. The “Dyspnoea: Affected/At Risk” value was 2/17, the “Dyspnoea: Affected/At Risk (%)” value was “(11.76%)” and the “Embolism: # Events” value was 1. The “Embolism: Affected/At Risk” value was 1/17, the “Embolism: Affected/At Risk (%)” value was “(5.88%)” and the “Enamel anomaly: # Events” value was 0. For the same compound, the “Enamel anomaly: Affected/At Risk” value was 0/17, the “Enamel anomaly: Affected/At Risk (%)” value was “(0%)” and the “Epidural lipomatosis: # Events” value was 1. For the same compound, the “Epidural lipomatosis: Affected/At Risk” value was 1/17, the “Epidural lipomatosis: Affected/At Risk (%)” value was “(5.88%)” and the “Epstein-Barr virus infection: # Events” value was 1. The “Epstein-Barr virus infection: Affected/At Risk” value was 1/17, the “Epstein-Barr virus infection: Affected/At Risk (%)” value was “(5.88%)” and the “Erectile dysfunction: # Events” value was 4. The “Erectile dysfunction: Affected/At Risk” value was 2/17, the “Erectile dysfunction: Affected/At Risk (%)” value was “(11.76%)” and the “Eye irritation: # Events” value was 1. For the same compound, the “Eye irritation: Affected/At Risk” value was 1/17, the “Eye irritation: Affected/At Risk (%)” value was “(5.88%)” and the “Eye pain: # Events” value was 0. The “Eye pain: Affected/At Risk” value was 0/17, the “Eye pain: Affected/At Risk (%)” value was “(0%)” and the “Eye pruritus: # Events” value was 0. For the same compound, the “Eye pruritus: Affected/At Risk” value was 0/17, the “Eye pruritus: Affected/At Risk (%)” value was “(0%)” and the “Fall: # Events” value was 2. For the same compound, the “Fall: Affected/At Risk” value was 2/17, the “Fall: Affected/At Risk (%)” value was “(11.76%)” and the “Fatigue: # Events” value was 7. The “Fatigue: Affected/At Risk” value was 6/17, the “Fatigue: Affected/At Risk (%)” value was “(35.29%)” and the “Flatulence: # Events” value was 0. For the same compound, the “Flatulence: Affected/At Risk” value was 0/17, the “Flatulence: Affected/At Risk (%)” value was “(0%)” and the “Flushing: # Events” value was 0. For the same compound, the “Flushing: Affected/At Risk” value was 0/17, the “Flushing: Affected/At Risk (%)” value was “(0%)” and the “Fungal infection: # Events” value was 1. For the same compound, the “Fungal infection: Affected/At Risk” value was 1/17, the “Fungal infection: Affected/At Risk (%)” value was “(5.88%)” and the “Gamma-glutamyltransferase increased: # Events” value was 9. For the same compound, the “Gamma-glutamyltransferase increased: Affected/At Risk” value was 4/17, the “Gamma-glutamyltransferase increased: Affected/At Risk (%)” value was “(23.53%)” and the “Gastric ulcer: # Events” value was 0. The “Gastric ulcer: Affected/At Risk” value was 0/17, the “Gastric ulcer: Affected/At Risk (%)” value was “(0%)” and the “Gastrooesophageal reflux disease: # Events” value was 2. For the same compound, the “Gastrooesophageal reflux disease: Affected/At Risk” value was 2/17, the “Gastrooesophageal reflux disease: Affected/At Risk (%)” value was “(11.76%)” and the “Generalised oedema: # Events” value was 1. For the same compound, the “Generalised oedema: Affected/At Risk” value was 1/17, the “Generalised oedema: Affected/At Risk (%)” value was “(5.88%)” and the “Genital infection fungal: # Events” value was 0. For the same compound, the “Genital infection fungal: Affected/At Risk” value was 0/17, the “Genital infection fungal: Affected/At Risk (%)” value was “(0%)” and the “Glaucoma: # Events” value was 0. The “Glaucoma: Affected/At Risk” value was 0/17, the “Glaucoma: Affected/At Risk (%)” value was “(0%)” and the “Glucose urine present: # Events” value was 3. The “Glucose urine present: Affected/At Risk” value was 2/17, the “Glucose urine present: Affected/At Risk (%)” value was “(11.76%)” and the “Graft versus host disease in gastrointestinal tract: # Events” value was 1. The “Graft versus host disease in gastrointestinal tract: Affected/At Risk” value was 1/17, the “Graft versus host disease in gastrointestinal tract: Affected/At Risk (%)” value was “(5.88%)” and the “Gynaecomastia: # Events” value was 0. For the same compound, the “Gynaecomastia: Affected/At Risk” value was 0/17, the “Gynaecomastia: Affected/At Risk (%)” value was “(0%)” and the “Haematuria: # Events” value was 1. The “Haematuria: Affected/At Risk” value was 1/17, the “Haematuria: Affected/At Risk (%)” value was “(5.88%)” and the “Hair growth abnormal: # Events” value was 1. For the same compound, the “Hair growth abnormal: Affected/At Risk” value was 1/17, the “Hair growth abnormal: Affected/At Risk (%)” value was “(5.88%)” and the “Headache: # Events” value was 4. The “Headache: Affected/At Risk” value was 4/17, the “Headache: Affected/At Risk (%)” value was “(23.53%)” and the “Hodgkin's disease recurrent: # Events” value was 1. For the same compound, the “Hodgkin's disease recurrent: Affected/At Risk” value was 1/17, the “Hodgkin's disease recurrent: Affected/At Risk (%)” value was “(5.88%)” and the “Hordeolum: # Events” value was 1. For the same compound, the “Hordeolum: Affected/At Risk” value was 1/17, the “Hordeolum: Affected/At Risk (%)” value was “(5.88%)” and the “Hot flush: # Events” value was 1. The “Hot flush: Affected/At Risk” value was 1/17, the “Hot flush: Affected/At Risk (%)” value was “(5.88%)” and the “Hyperglycemia: # Events” value was 2. The “Hyperglycemia: Affected/At Risk” value was 2/17, the “Hyperglycemia: Affected/At Risk (%)” value was “(11.76%)” and the “Hyperhidrosis: # Events” value was 0. The “Hyperhidrosis: Affected/At Risk” value was 0/17, the “Hyperhidrosis: Affected/At Risk (%)” value was “(0%)” and the “Hyperkalaemia: # Events” value was 7. For the same compound, the “Hyperkalaemia: Affected/At Risk” value was 3/17, the “Hyperkalaemia: Affected/At Risk (%)” value was “(17.65%)” and the “Hypertension: # Events” value was 8. The “Hypertension: Affected/At Risk” value was 5/17, the “Hypertension: Affected/At Risk (%)” value was “(29.41%)” and the “Hyperthyroidism: # Events” value was 0. For the same compound, the “Hyperthyroidism: Affected/At Risk” value was 0/17, the “Hyperthyroidism: Affected/At Risk (%)” value was “(0%)” and the “Hypertriglyceridaemia: # Events” value was 0. For the same compound, the “Hypertriglyceridaemia: Affected/At Risk” value was 0/17, the “Hypertriglyceridaemia: Affected/At Risk (%)” value was “(0%)” and the “Hyperuricaemia: # Events” value was 6. For the same compound, the “Hyperuricaemia: Affected/At Risk” value was 1/17, the “Hyperuricaemia: Affected/At Risk (%)” value was “(5.88%)” and the “Hypoaesthesia: # Events” value was 2. For the same compound, the “Hypoaesthesia: Affected/At Risk” value was 1/17, the “Hypoaesthesia: Affected/At Risk (%)” value was “(5.88%)” and the “Hypocalcaemia: # Events” value was 0. The “Hypocalcaemia: Affected/At Risk” value was 0/17 and the “Hypocalcaemia: Affected/At Risk (%)” value was “(0%)”.
